Source: ChEMBL document CHEMBL5352410, “Discovery of novel selenium-containing azole derivatives as antifungal agents by exploiting the hydrophobic cleft of CYP51” (Eur J Med Chem, 2022)
In brackets after ≈: the same amount, converted by molar mass. Activity calls are given as the source filed them. The calls are words filed in the database; no cut-off is given here.

Experiments:
Candida albicans [1] = assay: Antifungal activity against FCZ-resistant Candida albicans CaR by CLSI based broth microdilution method; assay type: functional
Candida albicans [2] = assay: Antifungal activity against FCZ-resistant Candida albicans 632 by CLSI based broth microdilution method; assay type: functional
Candida albicans [3] = assay: Antifungal activity against FCZ-resistant Candida albicans 901 by CLSI based broth microdilution method; assay type: functional
Candida albicans [4] = assay: Antifungal activity against FCZ-resistant Candida albicans 904 by CLSI based broth microdilution method; assay type: functional
Candida albicans [5] = assay: Fungicidal activity against Candida albicans; assay type: functional
Candida albicans [6] = assay: Fungicidal activity against FCZ-resistant Candida albicans CaR; assay type: functional
Candida albicans [7] = assay: Fungicidal activity against FCZ-resistant Candida albicans 632; assay type: functional
Candida albicans [8] = assay: Fungicidal activity against FCZ-resistant Candida albicans 901; assay type: functional
[9] = biological target: T1, Lanosterol 14-alpha demethylase (Candida albicans (strain SC5314 / ATCC MYA-2876) (Yeast), UniProt P10613); assay: Inhibition of CYP51 of Candida albicans ATCC SC5314 assessed as decrease in ergosterol level by measuring residual activity at 1 ug/ml incubated for 16 hrs by GC-MS analysis (reference value: 98.3 %); details: at 1 µg/mL
[10] = biological target: T1, Lanosterol 14-alpha demethylase; assay: Inhibition of CYP51 of Candida albicans ATCC SC5314 assessed as decrease in ergosterol level by measuring residual activity at 2 ug/ml incubated for 16 hrs by GC-MS analysis (reference value: 98.3 %); details: at 2 µg/mL
[11] = biological target: T1, Lanosterol 14-alpha demethylase; assay: Inhibition of CYP51 of Candida albicans ATCC SC5314 assessed as decrease in ergosterol level by measuring residual activity at 4 ug/ml incubated for 16 hrs by GC-MS analysis (reference value: 98.3 %); details: at 4 µg/mL
[12] = biological target: T1, Lanosterol 14-alpha demethylase; assay: Inhibition of CYP51 of Candida albicans ATCC SC5314 assessed as decrease in ergosterol level by measuring residual activity at 8 ug/ml incubated for 16 hrs by GC-MS analysis (reference value: 98.3 %); details: at 8 µg/mL
[13] = biological target: T1, Lanosterol 14-alpha demethylase; assay: Inhibition of CYP51 of Candida albicans ATCC SC5314 assessed as increase in obtusifoliol level at 1 ug/ml incubated for 16 hrs by GC-MS analysis (reference value: 0 %); design: scale not given: the % may be the effect or the level left; details: at 1 µg/mL
[14] = biological target: T1, Lanosterol 14-alpha demethylase; assay: Inhibition of CYP51 of Candida albicans ATCC SC5314 assessed as increase in obtusifoliol level at 2 ug/ml incubated for 16 hrs by GC-MS analysis (reference value: 0 %); design: scale not given: the % may be the effect or the level left; details: at 2 µg/mL
[15] = biological target: T1, Lanosterol 14-alpha demethylase; assay: Inhibition of CYP51 of Candida albicans ATCC SC5314 assessed as increase in obtusifoliol level at 4 ug/ml incubated for 16 hrs by GC-MS analysis (reference value: 0 %); design: scale not given: the % may be the effect or the level left; details: at 4 µg/mL
[16] = biological target: T1, Lanosterol 14-alpha demethylase; assay: Inhibition of CYP51 of Candida albicans ATCC SC5314 assessed as increase in obtusifoliol level at 8 ug/ml incubated for 16 hrs by GC-MS analysis (reference value: 0 %); design: scale not given: the % may be the effect or the level left; details: at 8 µg/mL
[17] = biological target: T1, Lanosterol 14-alpha demethylase; assay: Inhibition of CYP51 of Candida albicans ATCC SC5314 assessed as increase in lanosterol level at 1 ug/ml incubated for 16 hrs by GC-MS analysis (reference value: 1.7 %); design: scale not given: the % may be the effect or the level left; details: at 1 µg/mL
[18] = biological target: T1, Lanosterol 14-alpha demethylase; assay: Inhibition of CYP51 of Candida albicans ATCC SC5314 assessed as increase in lanosterol level at 2 ug/ml incubated for 16 hrs by GC-MS analysis (reference value: 1.7 %); design: scale not given: the % may be the effect or the level left; details: at 2 µg/mL
[19] = biological target: T1, Lanosterol 14-alpha demethylase; assay: Inhibition of CYP51 of Candida albicans ATCC SC5314 assessed as increase in lanosterol level at 8 ug/ml incubated for 16 hrs by GC-MS analysis (reference value: 1.7 %); design: scale not given: the % may be the effect or the level left; details: at 8 µg/mL
[20] = biological target: T1, Lanosterol 14-alpha demethylase; assay: Inhibition of CYP51 of Candida albicans ATCC SC5314 assessed as increase in eburicol level at 8 ug/ml incubated for 16 hrs by GC-MS analysis (reference value: 0 %); design: scale not given: the % may be the effect or the level left; details: at 8 µg/mL
Candida albicans [21] = assay: Antibiofilm activity against Candida albicans SC5314 assessed as sessile minimum inhibitory concentration measured after 1.5 hrs by XTT assay; assay type: functional
Candida albicans [22] = assay: Antibiofilm activity against Candida albicans SC5314 assessed as sessile minimum inhibitory concentration measured after 3 hrs by XTT assay; assay type: functional
Candida albicans [23] = assay: Antibiofilm activity against Candida albicans SC5314 assessed as sessile minimum inhibitory concentration measured after 6 hrs by XTT assay; assay type: functional
Candida albicans [24] = assay: Antibiofilm activity against Candida albicans SC5314 assessed as sessile minimum inhibitory concentration measured after 24 hrs by XTT assay; assay type: functional
Candida albicans [25] = assay: Antibiofilm activity against Candida albicans CPCC400616 assessed as sessile minimum inhibitory concentration measured after 1.5 hrs by XTT assay; assay type: functional
Candida albicans [26] = assay: Antibiofilm activity against Candida albicans CPCC400616 assessed as sessile minimum inhibitory concentration measured after 3 hrs by XTT assay; assay type: functional
Candida albicans [27] = assay: Antibiofilm activity against Candida albicans CPCC400616 assessed as sessile minimum inhibitory concentration measured after 6 hrs by XTT assay; assay type: functional
Candida albicans [28] = assay: Antibiofilm activity against Candida albicans CPCC400616 assessed as sessile minimum inhibitory concentration measured after 24 hrs by XTT assay; assay type: functional
[29] = Cytotoxicity against human HL-60 cells by MTT assay; assay type: toxicity, cell-based
[30] = Cytotoxicity against human MDA-MB-231 cells by MTT assay; assay type: toxicity, cell-based
[31] = Cytotoxicity against human PC-3 cells by MTT assay; assay type: toxicity, cell-based
[32] = Metabolic stability in mouse liver microsome assessed as clearance; assay type: ADME; details: liver microsomes, read-out: CLH
Candida albicans [33] = assay: Antifungal activity against Candida albicans ATCC SC5314 infected in mouse model assessed as reduction in kidney fungal burden at 6 to 12 mg/kg, ip measured after 5 consecutive days by colony forming unit assay; assay type: functional, organism-based; details: dose 6-12 mg/kg, time 5.0 day
[34] = Acute toxicity in water diet-fed Kunming mouse assessed as change in body weight at 500 mg/kg, IG measured for 7 days; assay type: organism-based; details: in vivo, po, 168 h, time 7 day
[35] = Acute toxicity in water diet-fed Kunming mouse administered intragastrically measured for 7 days; details: in vivo, po, route ig, time 7 day
[36] = Subacute toxicity in water diet-fed Kunming mouse assessed as lesions in liver at 100 to 200 mg/kg, IG measured after 8 to 15 days; assay type: organism-based; details: in vivo, po, dose lower 100 mg/kg, time lower 8 day, dose upper 200 mg/kg, time upper 15 day
[37] = Subacute toxicity in water diet-fed Kunming mouse assessed as lesions in kidney at 100 to 200 mg/kg, IG measured after 8 to 15 days; assay type: organism-based; details: in vivo, po, dose lower 100 mg/kg, time lower 8 day, dose upper 200 mg/kg, time upper 15 day
[38] = Subacute toxicity in water diet-fed Kunming mouse assessed as liver edema at 100 to 200 mg/kg, IG measured after 7 to 14 days by microscopic analysis; assay type: organism-based; details: in vivo, po, dose lower 100 mg/kg, time lower 7 day, dose upper 200 mg/kg, time upper 14 day
[39] = Subacute toxicity in water diet-fed Kunming mouse assessed as focal necrosis in liver at 100 to 200 mg/kg, IG measured after 7 to 14 days by microscopic analysis; assay type: organism-based; details: in vivo, po, dose lower 100 mg/kg, time lower 7 day, dose upper 200 mg/kg, time upper 14 day

T1 sequence (P10613 whole entry): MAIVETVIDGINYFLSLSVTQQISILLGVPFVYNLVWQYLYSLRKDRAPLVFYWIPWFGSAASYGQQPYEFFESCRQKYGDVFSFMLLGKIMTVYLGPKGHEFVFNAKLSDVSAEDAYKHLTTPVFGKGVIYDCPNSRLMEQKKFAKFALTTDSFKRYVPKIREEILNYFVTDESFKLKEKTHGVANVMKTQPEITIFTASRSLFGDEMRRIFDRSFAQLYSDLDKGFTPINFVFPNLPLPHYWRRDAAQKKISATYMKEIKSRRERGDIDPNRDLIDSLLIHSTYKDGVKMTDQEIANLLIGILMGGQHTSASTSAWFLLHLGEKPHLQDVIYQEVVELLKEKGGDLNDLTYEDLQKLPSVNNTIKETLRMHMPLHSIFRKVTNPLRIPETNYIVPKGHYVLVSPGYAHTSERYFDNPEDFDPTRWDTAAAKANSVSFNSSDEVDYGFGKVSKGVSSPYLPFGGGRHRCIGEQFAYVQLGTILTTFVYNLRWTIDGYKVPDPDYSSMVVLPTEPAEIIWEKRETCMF

Clc1ccc(C(Cn2ccnc2)[Se][Se]C(Cn2ccnc2)c2ccc(Cl)cc2Cl)c(Cl)c1 (configuration not stated)
MIC (Candida albicans [1]): 2 mg/L (≈ 3.13 µM) | MIC (Candida albicans [2]): 4 mg/L (≈ 6.27 µM) | MIC (Candida albicans [3]): 2 mg/L (≈ 3.13 µM) | MIC (Candida albicans [4]): 4 mg/L (≈ 6.27 µM) | MFC (Candida albicans [5]): 16 mg/L (≈ 25.1 µM) | MFC (Candida albicans [6]): 16 mg/L (≈ 25.1 µM) | MFC (Candida albicans [7]): 16 mg/L (≈ 25.1 µM) | MFC (Candida albicans [8]): 2 mg/L (≈ 3.13 µM) | Activity [9]: 24.4% | Activity [10]: 2.4% | Activity [11]: 2.7% | Activity [12]: 2.2% | Activity [13]: 6.4% | Activity [14]: 12.2% | Activity [15]: 13.5% | Activity [16]: 19.8% | Activity [17]: 8.4% | Activity [18]: 22.6% | Activity [19]: 16.7% | Activity [20]: 61.3% | MIC50 (Candida albicans [21]): 0.5 mg/L (≈ 0.784 µM) | MIC80 (Candida albicans [21]): 4 mg/L (≈ 6.27 µM) | MIC50 (Candida albicans [22]): 0.5 mg/L (≈ 0.784 µM) | MIC80 (Candida albicans [22]): 4 mg/L (≈ 6.27 µM) | MIC50 (Candida albicans [23]): 0.5 mg/L (≈ 0.784 µM) | MIC80 (Candida albicans [23]): 4 mg/L (≈ 6.27 µM) | MIC50 (Candida albicans [24]): 0.5 mg/L (≈ 0.784 µM) | MIC80 (Candida albicans [24]): 32 mg/L (≈ 50.1 µM) | MIC50 (Candida albicans [25]): 0.5 mg/L (≈ 0.784 µM) | MIC80 (Candida albicans [25]): 2 mg/L (≈ 3.13 µM) | MIC50 (Candida albicans [26]): 0.5 mg/L (≈ 0.784 µM) | MIC80 (Candida albicans [26]): 4 mg/L (≈ 6.27 µM) | MIC50 (Candida albicans [27]): 1 mg/L (≈ 1.57 µM) | MIC80 (Candida albicans [27]): 4 mg/L (≈ 6.27 µM) | MIC50 (Candida albicans [28]): 4 mg/L (≈ 6.27 µM) | MIC80 (Candida albicans [28]): 4 mg/L (≈ 6.27 µM) | IC50 [29]: 32.5 µM | IC50 [30]: 6.25 µM | IC50 [31]: 1.43 µM | CLint scaled [32]: 8.02 L/h/kg | Activity (Candida albicans [33]): Active | Activity [34]: Non-Toxic | LD50 at 168 h [35]: ~2000 mg/kg | Activity [36]: Non-Toxic | Activity [37]: Non-Toxic | Activity [38]: Toxic | Activity [39]: Toxic
